# Data as given in patent publication US12350241B1, “Method for inhibiting proliferation of cancer cells” (IMAM MOHAMMAD IBN SAUD ISLAMIC UNIVERSITY, priority 2024, dated 2025).
# Tests used:
# Assay in all cases: growth inhibition of cancer cells (FIG. 3)
# Type in all cases: cell-based
# HEP2 cancer cells = test system: HEP2 cancer cells
# [1] = test system: A549 lung cancer stem cells
# [2] = test system: HCT116 colon carcinoma stem cells
# PC3 cancer stem cells = test system: PC3 cancer stem cells
# FaDu cancer stem cells = test system: FaDu cancer stem cells
# [3] = test system: MDA-MB-468 cancer stem cells
# HELA cancer stem cells = test system: HELA cancer stem cells
smiles,measurement,setting,value
"CCCCOc1ccc(Oc2ccc(C=O)cc2)cc1 [YS2, 4-(4-butoxyphenoxy)benzaldehyde]",growth inhibition percentage,HEP2 cancer cells; HEP2 cancer cells,about 70%
same,performance compared to doxorubicin (DOX),"HEP2 cancer cells; HEP cell line, versus commercially available doxorubicin",comparable to or outperformed DOX
same,performance compared to doxorubicin (DOX),"[1]; A549 cell line, versus commercially available doxorubicin",comparable to or outperformed DOX
same,growth inhibition percentage,[1]; A549 lung cancer stem cells,about 90%
same,performance compared to doxorubicin (DOX),"[2]; HCT 116 cell line, versus commercially available doxorubicin",comparable to or outperformed DOX
same,growth inhibition percentage,[2]; HCT116 colon carcinoma stem cells,about 90%
same,growth inhibition percentage,PC3 cancer stem cells,about 90%
same,growth inhibition percentage,FaDu cancer stem cells,about 90%
same,growth inhibition percentage,[3],about 95%
same,growth inhibition percentage,HELA cancer stem cells,about 80%
